Source: paper PMC6895912 (Cancers, 2019)
Entries after “also recorded” stand apart in the source; their conditions may differ.

Assays:
[1] = system: CWR-R1, CWR-R1 (10E), CWR-R1-MTX20nM cells; test: Colony formation (clonogenicity) assay; type: cell-based, human; conditions: parental CWR-R1 and drug-resistant counterparts, 14 days
Text: (A) Comparative GI50 values of Gal, NGGAs, and enzalutamide (ENZ) in drug-naïve-/-resistant prostate cancer cells. (B) Gal and NGGAs induce G1 cell cycle arrest in LNCaP cells. (C) VNPP414 and VNPP433-3β deplete the cell cycle regulator, cyclin D1, and upregulate p21; “+” indicates specific treatments. (D) Gal cause dose-dependent depletion of cyclin D1. (E) Unlike ENZ, Gal and VNPP433-3β inhibit colony formation of drug-naïve/-resistant cells in vitro. 1000 cells/well (CWR-R1, CWR-R1 (10E), CWR-R1-MTX20nM), seeded in 6-well plates were treated with indicated concentrations of compounds for a period of 14 days. Media containing compounds were replaced every 3 days. Colonies were stained with 0.05% crystal violet. (F) Quantification of colony formation units (CFU) in drug-naive/resistant cells. Colony assays were repeated three times and colonies counted in four quadrants of the wells. Results are represented as averages with S.E.M. (* p < 0.05, ** p < 0.001). Note: the numbers in parentheses in Figure 2B,C,E are concentrations of the agents in µM.
0.1 × 10^3 cells per well were seeded in 6-well plates and allowed to attach overnight (16 h), cells were treated with compounds in regular media (RPMI with 10% FBS) at the indicated concentrations and replaced every 3rd day for 14 days or until visible colonies could be counted. Colonies were washed and stained with 0.05% crystal violet for 30 min. Colonies were scanned and quantified (colonies counted in four quadrants of each well) with ImageJ colony counter. Results are represented as the mean of triplicates.

CWR22Rv1 xenografts = test: Antitumor efficacy in castration-resistant CWR22Rv1 xenograft model; type: in vivo, male NOD SCID mice; conditions: 25 mg/kg PO once daily, 16 days; listed as ENZ
Description: Following the in vitro studies and determination of the PK parameters, we then investigated the relative efficacy. Gal and the NGGAs in vivo using difficult-to-treat castration-resistant CWR22Rv1 xenografts. Given the enhanced IP and PO PK parameters of VNPP414 and VNPP433-3β over Gal, we decided to use lower doses of the new analogs compared to the previous Gal doses (200 mg/kg, IP/PO). Gal (200 mg/kg) served as positive control, while ENZ (25 mg/kg) administered PO was used as negative control. Male NOD SCID mice bearing CWR22Rv1 tumors were treated with vehicle, ENZ, Gal, VNPP414, and VNPP433-3β for 16 days as described in the Methods and Materials Section. […] In contrast, Gal and the NGGAs caused statistically significant tumor growth inhibition (TGI). […] It is notable that VNPP433-3β (at 7.5- and 15-fold lower molar doses) and VNPP414 (at 4-fold lower molar dose) are more efficacious than Gal. In general, no host toxicities were observed, as monitored by changes in animal body weight (Figure 7C).
Figure 7 Effects of Gal, NGGAs and ENZ in an in vivo castration-resistant prostate cancer model. (A) Mice bearing CWR22Rv1 xenografts (5 mice per group) were treated with vehicle, Gal (100 mg/kg/twice daily), VNPP414 (60 mg/kg, once daily), VNPP433-3β (15 or 30 mg/kg, once daily) and ENZ (25 mg.kg, once daily) 5 days per week for 16 days. Tumor volumes were measured twice a week and the tumors were collected. Tumor growth inhibition (TGI) values are indicated at the right of each growth curve, and the error bars are the SEM. Results are represented as means ± SEM. ^# p = ns (not significant vs. vehicle), ^$ p < 0.0272 vs. vehicle, * p < 0.0035 vs. vehicle, ** p < 0.0025 vs. vehicle and *** p < 0.0008 vs. vehicle. (B) Photographed tumors from each group. (C) Mean body weights of mice determined during the study. (D) Western blot analyses of tumor samples from each experimental group at day 16. […] It is left out because vehicle is a control, not a substance.
Male NOD SCID mice 5–6 weeks of age were obtained from University of Maryland School of Medicine Veterinary Resources (Baltimore, MD, USA. Mice were housed under complete aseptic conditions, fed autoclaved pellets and sterile water ad libitum. Following a week of acclimatization, approximately 5 × 10^6 CWR22Rv1 cells were inoculated one flank f mice. Tumor-bearing mice (tumor volume around ~100 mm^3) were randomized into 6 groups (5 mice in each group; compounds formulated in vehicle) and treated as follows: (i) vehicle control (40% β-cyclodextrin in saline, PO.), (ii) ENZ (25 mg/kg, PO, once daily), (iii) Gal (100mg/kg, PO, twice daily), (iv) VNPP414 (60 mg/kg, PO, once daily), (v) VNPP433-3β (15 mg/kg, PO, once daily), and (vi) VNPP433-3β (30 mg/kg, PO, once daily) for 5 days/week. Tumors were measured twice weekly with calipers and tumor volume was calculated by the formula: length × width^2 × 0.5 (mm^3). Animals were also weighed weekly and monitored for general health status and signs of possible toxicity due to treatments. Mice were sacrificed after the indicated periods of treatment and tumors excised. Tumors were divided and either flash frozen in liquid nitrogen or placed in 10% buffered formalin for western blot analysis.

Structure (SMILES): CNC(=O)c1ccc(N2C(=S)N(c3ccc(C#N)c(C(F)(F)F)c3)C(=O)C2(C)C)cc1F [Enzalutamide, reference compound]
- inhibition of colony formation [1]: ineffective at the concentrations tested
- tumor volume versus vehicle-treated control (in words) (CWR22Rv1 xenografts): ineffective; also recorded: no statistically significant difference
